Measurements: patent US8987309B2, “Compounds, pharmaceutical compositions and methods of use of 2-aryl pyridylazoles” (The Translational Genomics Research Institute, priority 2009, dated 2015)
“Also recorded” adds a separate entry of the source.

How the values were obtained:
[1] = tested on: BxPC3 DPC-4(+/+) and BxPC3 DPC-4(−/−) cells; assay: Cytotoxicity (96-h MTT) in isogenic BxPC3 cell lines; format: cell-based, Human; settings: BxPC3 cell lines
Method: Cell lines and Culture Conditions. Human pancreatic cancer cell lines MiaPaCa-2 (Yunis et al., 1977), Panc-1 (Lieber et al., 1975), and BxPC3 (Tan et al., 1986) were purchased from the American Type Culture Collection (Manassas, Va.) and cultured in a humidified incubator at 37° C., 5% CO2, in RPMI 1640 medium (CellGro, Manassas, Va.) supplemented with 10% heat-inactivated bovine calf serum, 2 mM L-glutamine, 100 U/ml penicillin, and 100 µg/ml streptomycin (Invitrogen, Carlsbad, Calif.). MiaPaCa-2 (CRL-1420) is an adherent epithelial human pancreatic cancer cell line with a doubling time of approximately 40 h (Yunis et al., 1977). Panc-1 (CRL-1469) is an undifferentiated human pancreatic epithelial cell line with a doubling time of approximately 52 h (Lieber et al., 1975). The BxPC3 cell line DPC-4(−/−) and its isogenic restored wild-type DPC-4(+/+) cell line were developed and cultured as described previously (Wang et al., 2006). In brief, a DPC-4-expressing construct (pMSCVneoDPC-4) was created by amplifying full-length cDNA of DPC-4 using reverse transcriptase-PCR and subcloning into the multiple cloning site of a retroviral vector (pMSCVneo). The DPC-4-expressing construct was cotransfected into the BxPC3 DPC-4(−/−) cells using a packaging cell line, resulting in a cell line that constitutively expresses DPC-4. The expression of DPC-4 was confirmed by Western blotting (Wang et al., 2006).
(§1) Cytotoxicity Assays. Cytotoxicity assays in the mechanism of action studies were performed according to Mosmann (1983), wherein the activity of mitochondrial reductases were measured using 3-(4,5-dimethylthiozol-3-yl)-2,5-diphenyltetrozolium bromide dye. In brief, cells were seeded in 96-well plates and incubated for various times at 37° C. Inhibition of cell growth was measured by adding 3-(4,5-dimethylthiozol-3-yl)-2,5-diphenyltetrozolium bromide dye, and after an additional 4 h of incubation at 37° C., the 96-well plates were centrifuged, and the culture supernatant was removed. DMSO was added to each well to solubilize the formazan crystals, and the optical density was read at 540 nm on a Quant Spectrophotometer (BioTek Instruments, Winooski, Vt.). Cell growth inhibition data are expressed as percentage of survival compared with untreated cells. The IC50 is defined as the drug concentration required to produce 50% growth inhibition. Results are mean S.E.M. (n 3).
Mean±S.E.M., n=3. […] Mean±S.E.M., n=3. […] Mean tumor burden is shown.

[2] = tested on: SK-OV-3; assay: IC50 in tumor cell lines (SK-OV-3); format: cell-based; settings: Table 2; ovarian tumor cell line SK-OV-3
Method: as §1

[3] = target: T1, TrkB (Homo sapiens, UniProt Q16620); assay: Follow-up kinase screening and IC50 (SignalChem), TrkB; format: biochemical; parameters: assay run by SignalChem Pharmaceuticals, Inc. (Richmond, BC, Canada)
T1 sequence (Q16620 32-822): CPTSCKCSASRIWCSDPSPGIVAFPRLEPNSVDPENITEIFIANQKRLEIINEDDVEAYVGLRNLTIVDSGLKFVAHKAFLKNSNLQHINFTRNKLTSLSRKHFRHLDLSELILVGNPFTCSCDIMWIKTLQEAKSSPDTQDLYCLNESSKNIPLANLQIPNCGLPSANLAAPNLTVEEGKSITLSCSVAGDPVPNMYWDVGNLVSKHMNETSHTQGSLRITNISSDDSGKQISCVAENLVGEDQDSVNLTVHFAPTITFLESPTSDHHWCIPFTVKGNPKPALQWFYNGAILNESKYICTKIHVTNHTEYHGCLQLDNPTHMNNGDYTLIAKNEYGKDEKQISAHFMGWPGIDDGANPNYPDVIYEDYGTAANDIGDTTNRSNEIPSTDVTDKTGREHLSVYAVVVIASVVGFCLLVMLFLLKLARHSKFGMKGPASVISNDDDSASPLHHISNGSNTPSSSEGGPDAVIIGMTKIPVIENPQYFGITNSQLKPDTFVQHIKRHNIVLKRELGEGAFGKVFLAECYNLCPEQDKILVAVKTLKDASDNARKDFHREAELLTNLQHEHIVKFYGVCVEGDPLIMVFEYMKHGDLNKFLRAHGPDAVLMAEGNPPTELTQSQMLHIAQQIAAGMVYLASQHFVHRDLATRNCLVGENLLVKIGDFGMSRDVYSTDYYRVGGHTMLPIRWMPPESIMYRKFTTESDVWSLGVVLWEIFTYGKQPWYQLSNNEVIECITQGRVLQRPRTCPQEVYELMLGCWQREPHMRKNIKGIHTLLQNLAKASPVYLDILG

[4] = Storage stability by LC-MS; format: physicochemical
Method: Stability Studies. LC-MS was used to evaluate the stability of DPC-046 kept at −20° C. or at 22° C., unprotected from light. After 2 years of storage, there was a measurable (8.6%) loss of parent compound when stored at −20° C. in the dark and a 43.6% loss at 22° C. in light.

[5] = tested on: A498; assay: IC50 in tumor cell lines (A498); format: cell-based; settings: Table 2; kidney tumor cell line A498
Method: as §1

[6] = target: PIM-1 (Homo sapiens, UniProt P11309); assay: Initial kinase screening (Amphora), PIM-1; format: biochemical; parameters: assay run by Amphora Discovery Corporation (Durham, N.C.); settings: 10 μM compound
Chain of PIM-1 (P11309 whole entry): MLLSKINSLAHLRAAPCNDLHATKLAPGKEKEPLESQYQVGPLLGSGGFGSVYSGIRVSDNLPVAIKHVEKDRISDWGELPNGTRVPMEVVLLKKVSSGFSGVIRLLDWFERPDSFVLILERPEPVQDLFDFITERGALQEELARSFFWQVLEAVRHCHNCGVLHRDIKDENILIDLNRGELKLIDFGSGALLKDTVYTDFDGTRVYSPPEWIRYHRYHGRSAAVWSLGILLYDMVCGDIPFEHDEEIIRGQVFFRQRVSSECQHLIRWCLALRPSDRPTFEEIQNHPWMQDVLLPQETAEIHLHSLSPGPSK
Method: (§2) Kinase Screening. Initial kinase screening was performed by Amphora Discovery Corporation (Durham, N.C.).

[7] = tested on: MCF7; assay: IC50 in tumor cell lines (MCF7); format: cell-based; settings: Table 2; breast tumor cell line MCF7
Method: as §1

[8] = target: T1, TrkB; assay: Initial kinase screening (Amphora), TrkB; format: biochemical; parameters: assay run by Amphora Discovery Corporation (Durham, N.C.); settings: 10 μM compound
Method: as §2

[9] = Plasma protein binding (rapid equilibrium dialysis), human plasma; format: in vitro ADME; settings: plasma concentration of 3.27 μM
Method: Plasma Protein Binding. Plasma protein binding of DPC-046 was determined in human and mouse plasma using rapid equilibrium dialysis (RED) devices manufactured by Thermo Fisher Scientific. Plasma pH was adjusted to 7.4 and spiked with DPC-046 to a final plasma concentration of 1 μg/ml. Aliquots (500 μl) of the spiked plasma were placed into the sample chamber, and 750 μl of phosphate-buffered saline were placed into the adjacent chamber. Triplicate samples were loaded into the RED devices. The RED devices were incubated at 37° C. on an orbital shaker operating at 100 rpm for 24 h. […] After the incubation, aliquots of plasma and buffer were removed for the analysis of DPC-046 concentration by LC-MS-MS as described above.

[10] = Pharmacokinetic study, single intravenous dose; format: in vivo, SCID mice; settings: single intravenous 88 mg/kg
Method: Pharmacokinetic Studies. The pharmacokinetics of DPC-046 in nontumor bearing SCID mice was determined after intravenous administration of a single dose of 88 mg/kg. Plasma samples were collected at 0, 1, 5, 15, 30, 60, 90, 120, 240, 480, 960, and 1440 min after dosing. Plasma DPC-046 concentrations were analyzed by reversed-phase chromatography and tandem mass spectrometry. In brief, mouse plasma was mixed with 99 volumes of acetonitrile, and an aliquot of the supernatant was injected onto the LC-MS. The LC-MS analysis was performed on a ThermoFinnigan Quantum Ultra triple quadrupole mass spectrometer (Thermo Fisher Scientific, Waltham, Mass.) in tandem with a Surveyor LC system. […] Data are mean±S.E.M. (n=3).

[11] = tested on: PC3; assay: IC50 in tumor cell lines (PC3); format: cell-based; settings: prostate tumor cell line PC3
Method: as §1

[12] = tested on: DU145; assay: IC50 in tumor cell lines (DU145); format: cell-based; settings: Table 1; prostate tumor cell line DU145
Method: as §1

[13] = tested on: Caki-1; assay: IC50 in tumor cell lines (Caki-1); format: cell-based; settings: Table 2; kidney tumor cell line Caki-1
Method: as §1

COc1ccc(-c2cnc(-c3ccncc3-c3cccc(OC)c3)o2)cc1 [DPC046]
potency against BxPC3 cell lines (in words) ([1]; listed as DPC-046): most potent; also recorded: greatest cytotoxicity | potency against BxPC3 cell lines (in words) ([1]; listed as PC-046): high potency | IC50 [2]: 17 nM | inhibition of TrkB ([3]; 25 μM DPC-046, follow-up screen): more than 70% | inhibition of TrkB ([3]; highest concentration tested (50 μM)): 98% | loss of parent compound ([4]; 2 years of storage at 22° C. in light): 43.6% | loss of parent compound ([4]; 2 years of storage at −20° C. in the dark): 8.6% | IC50 [5]: 14 nM | inhibition of PIM-1 [6]: 50% | IC50 [7]: 11 nM | inhibition of TrkB [8]: 55% | bound to plasma proteins [9]: 85% | apparent volume of distribution ([10]; mice): 135.2 L/kg | clearance ([10]; mice): 248 mL/min/kg | mean (S.D.) plasma concentration at last sampling time ([10]; mice, 24 h): 0.226 (0.104) μM | mean (S.D.) peak plasma concentration ([10]; mice, first sampling time (1 min)): 10.8 (4.26) μM | monoexponential half-life ([10]; mouse plasma): 7.5 h | IC50 ([11]; Table 1): 6.5 nM | IC50 ([11]; Table 2): 6.5 nM | IC50 [12]: 27 nM | IC50 [13]: 13 nM
